Source: patent US4695569A, “Bicyclic heterocyclyl containing N-(bicyclic heterocyclyl)-4-piperidinamines” (Janssen Pharmaceutica N.V., priority 1987, dated 1987)

How the values were obtained:
[1] = system: compound 48/80-induced lethality; test: Protection of rats from compound 48/80-induced lethality; type: in vivo, rat (male, inbred Wistar strain); details: Rattus norvegicus, 4 h, read-out: Compound 48/80 lethality test in rats-ED50
Experimental: Protection of rats from compound 48/80-induced lethality
The protection from compound 48/80-induced lethal circulatory collapse appears to be a simple way of evaluating quantitatively the antihistaminic activity of test compounds. Male rats of an inbred Wistar strain, weighing 240-260 g were used in the experiment. After overnight starvation the rats were transferred to conditioned laboratories (temp.=21±1° C., relative humidity=65±5%).
The rats were treated subcutaneously or orally with a test compound or with the solvent (NaCl solution, 0.9%). […] Survival after 4 hours is therefore considered to be a safe criterion of a protective effect of drug administration.
The ED50 -values of the compounds of formula (I) are listed in the first column of table 1. Said ED50 -values are the values in mg/kg body weight at which the tested compounds protect 50% of the tested animals against compound 48/80-induced lethality.

[2] = system: serotonin; test: Antagonistic activity on the effects of serotonin in the gastric lesion test (lesions induced by compound 48/80); type: in vivo, rat (male, Wistar inbred strain); details: Rattus norvegicus, po, 4 h; read-out: gastric lesion test ED50 (distension of the stomach and lesions in the glandular area completely absent in 50% of rats)
Description: The compounds of formula (I) and the pharmaceutically acceptable acid addition salts thereof are also potent serotonin-antagonists. The potency of the subject compounds as serotonin-antagonists is clearly evidenced by the results obtained in the following tests wherein the antagonistic activity of the subject compounds on the effect of serotonin is examined.
Antagonistic activity on the effects of serotonin in the gastric lesion test
Comound 48/80 (a mixture of oligomers obtained by condensation of 4-methoxy-N-methylbenzeneethanamine and formaldehyde) is a potent releaser of vasoactive amines from endogenous stores such as, for example, histamine and serotonin. […] The shock, followed by dead, can be avoided if the rats are pretreated with a classical H 1 antagonist.
Male rats of a Wistar inbred strain, weighing 220-250 g, were starved overnight, water being available ad libitum. The test compounds were administered orally as a solution or as a suspension in aqueous medium. A control rat and a "blank" rat received the test compound. One hour later 5-[4-(diphenylmethyl)-1-piperazinylmethyl]-1-methyl-1H-benzimidazole-2-methanol was administered subcutaneously to all rats at the dose of 2.5 mg/kg.
Four hours after the intravenous injection of compound 48/80, the rats were decapitated and the stomachs were removed. Subsequently the stomachs ere inspected for distension and contents (blood, fluid, food) and thoroughly rinsed. The macroscopic lesions were scored from 0 to +++, 0 corresponding to complete absence of visible lesions and the highest score corresponding to reddish rough patches covering more than half the glandular area.

[3] = system: serotonin; details: known serotonin-antagonists, rats treated with compound 48/80; cited from earlier work

Fc1ccc(Cn2c(NC3CCN(CCc4cn5ccsc5n4)CC3)nc3ccccc32)cc1 [Compound 149, 1-[(4-fluorophenyl)methyl]-N-[1-[2-(imidazo[2,1-b]thiazol-6-yl)ethyl]-4-piperidinyl]-1H-benzimidazol-2-amine]
ED50 [1]: 0.08 mg/kg
ED50 [2]: 0.08 mg/kg

Fc1ccc(Cn2c(NC3CCN(CCc4cn5ccccc5n4)CC3)nc3ccccc32)cc1 [Compound 150, 1-[(4-fluorophenyl)methyl]-N-[1-[2-(imidazo[1,2-a]pyridin-2-yl)ethyl]-4-piperidinyl]-1H-benzimidazol-2-amine]
ED50 [1]: 0.08 mg/kg
ED50 [2]: 0.63 mg/kg

Cl.Cl.Cl.Fc1ccc(Cn2c(NC3CCN(Cc4cn5c(n4)CNCC5)CC3)nc3ccccc32)cc1 [Compound 152, 1-[(4-fluorophenyl)methyl]-N-[1-[(5,6,7,8-tetrahydroimidazo[1,2-a]pyrazin-2-yl)methyl]-4-piperidinyl]-1H-benzimidazol-2-amine trihydrochloride]
ED50 [1]: 0.08 mg/kg
ED50 [2]: 0.63 mg/kg

CN(C)CCCSc1ccccc1NC(=O)/C=C/c1ccccc1 [cinanserin]
prevention of cyanosis of ears and extremities, lesions in the glandular area of the stomach and abnormal gastric distension [3]: prevent completely

CN1CCC(=C2c3ccccc3C=Cc3ccccc32)CC1 [cyproheptadine]
prevention of cyanosis of ears and extremities, lesions in the glandular area of the stomach and abnormal gastric distension [3]: prevent completely

CN1C[C@H](CNC(=O)OCc2ccccc2)C[C@@H]2c3cccc4c3c(cn4C)C[C@H]21 [metergoline]
prevention of cyanosis of ears and extremities, lesions in the glandular area of the stomach and abnormal gastric distension [3]: prevent completely

CC[C@@H](CO)NC(=O)[C@@H]1C=C2c3cccc4c3c(cn4C)C[C@H]2N(C)C1 [methysergide]
prevention of cyanosis of ears and extremities, lesions in the glandular area of the stomach and abnormal gastric distension [3]: prevent completely

CN1CCN2c3ccccc3Cc3ccccc3C2C1 (centres unmarked) [mianserin]
prevention of cyanosis of ears and extremities, lesions in the glandular area of the stomach and abnormal gastric distension [3]: prevent completely

NC(=O)C1(N2CCCCC2)CCN(CCCC(=O)c2ccc(F)cc2)CC1 [pipamperone]
prevention of cyanosis of ears and extremities, lesions in the glandular area of the stomach and abnormal gastric distension [3]: prevent completely

CN1CCC(=C2c3ccccc3CCc3sccc32)CC1 [pizotifen]
prevention of cyanosis of ears and extremities, lesions in the glandular area of the stomach and abnormal gastric distension [3]: prevent completely

O=C(CCCN1CCC2(CC1)C(=O)NCN2c1ccccc1)c1ccc(F)cc1 [spiperone]
prevention of cyanosis of ears and extremities, lesions in the glandular area of the stomach and abnormal gastric distension [3]: prevent completely
